Results on one substance are retold here after US20200384072A1, “THERAPY OF IONIZING RADIATION-INDUCED DISORDERS” (SCK-CEN, priority 2019, published 2020).

Holding throughout (format): cell-based, human
For assay [1], the system named is TIME cells. Nature of the assay: Intracellular ROS, CM-H2DCFDA IncuCyte live cell imaging, TIME cells. The note with it: 100 μM TAT-Gap19, 0.1 Gy, 45 min p.i. As for the experimental part:
In order to further assess intracellular ROS production, IncuCyte live cell imaging was used to have fast imaging in large number of replicates over multiple time points. TICAE and TIME cells were seeded in 96-well plate in 16 replicates at a density of 10000 cells/well. Three days later, cells reached 100% confluence. At 30 minutes before irradiation, a fresh MesoEndo Cell Growth Medium without phenol red (Sigma-Aldrich Co. LCC, Diegem, Belgium) supplemented with 10 μmol/L of the CM-H2DCFDA dye (Sigma-Aldrich Co. LCC, Diegem, Belgium) was added to the cells, with or without 100 μM TAT-Gap19 (Genosphere Biotechnologies, Paris, France). Fluorescence signals were measured at 45 min, 2 h and 3 h after irradiation (CM-H2DCFDA dye became saturated due to photoactivaton, and leaked outside the cells after this time) using the IncuCyte ZOOM® system (Essen BioScience, Ann Arbor, Mich., USA), 10× objective and FITC filter. […] Images were analysed making use of the software package provided by the manufacturer; we used a training set of images from different doses to define the image processing procedure. The so called Top-Hat background subtraction method was applied by measuring the radius of the fluorescence object (30 μm), and adjust a threshold of 1.5 (above the local background fluorescent intensity level), as described in IncuCyte™ Background Fluorescence Technical Note. […]

For assay [2], the system named is TICAE cells. Kind of assay: Cytokine detection (Magnetic Luminex) in supernatant after irradiation, TICAE cells. On the procedure: TICAE and TIME cells were seeded in a 6-well plate at a density of 2.5×10^5 cells/well in 5 to 6 biological replicates. Two to three days later, cells reached 100% confluence. At 30 minutes before X-ray exposure, cells were refreshed with medium with or without 100 μM TAT-Gap19 (Genosphere Biotechnologies, Paris, France). At 24 h, 48 h, 72 h and 7 d after irradiation, the supernatant was collected. Medium was changed only for the 7 d time point experiment at the fourth day with fresh medium alone or with medium supplemented with 100 μM TAT-Gap19. For the simultaneous detection of multiple cytokines in the supernatants, the Magnetic Luminex® Assay (R&D systems, Minneapolis, […]) was used following manufacturer's instructions. Briefly, supernatants, standards and microparticles were incubated into a 96-well plate which was pre-coated with cytokine-specific antibodies. The immobilized antibodies were able to bind the cytokines of interest after 2 h incubation, then the plate was washed and incubation with a biotinylated antibody cocktail specific to the cytokines of interest was performed for 1 h. A second wash was performed to remove the unbound biotinylated antibodies. Further, a streptavidin-phycoerythrin conjugate was added to each well to bind to the biotinylated antibodies. After a final wash, the microparticles were resuspended in buffer and read using the Luminex® MAGPIX Analyzer (R&D systems, Minneapolis, […]).
In order to normalize to cell number, DAPI staining was performed for the 48 h after irradiation time point. Briefly, cells were washed with phosphate buffered saline (PBS) and fixed with 4% paraformaldehyde (PFA) for 15 minutes at room temperature. Afterwards, the cells were washed with PBS and stained with 1 μg/mL 4′,6-Diamidine-2′-phenylindole (DAPI) dissolved in 1×TBST, 0.005 g/v % TSA blocking powder (PerkinElmer, FP1012) (TNB). After one hour, cells were washed with PBS and DAPI signals were visualized with the Nikon Eclipse Ti automated inverted wide-field epifluorescence microscope equipped with a 5× magnification (Plan Fluor, numerical aperture 0.6) dry objective and a Nikon IE2000-E camera controlled by the MS Elements software. The intensity of the DAPI signals was determined with the FIJI software. Cell count for 24 h after irradiation experiment was performed by Moxi Z Mini Automated Cell Counter (ORFLO Technologies, Ketchum, Id., USA) after trypsinization. For the 72 h and 7 d post-irradiation cell counts, we used IncuCyte ZOOM™ phase contrast imaging based on 49 images taken per well with the 10× objective.

Assay [3] relates to TICAE cells. Nature of the assay: Senescence-associated β-galactosidase CPRG assay, TICAE cells. As for the experimental part:
(§1) TICAE and TIME cells were seeded in 96 well plates at a density of 10000 cells/well in 16 replicates. Three days after, cells were at 100% confluent. At 30 minutes before X-ray exposure, the cells were refreshed with 150 μl medium alone or with medium supplemented with 100 μM TAT-Gap19 (Genosphere Biotechnologies, Paris, France). For 7 d and 9 d post irradiation experiments, the medium was refreshed once, while for 14 d post irradiation experiment the medium was refreshed twice with 200 μl medium alone or with medium supplemented with 100 μM TAT-Gap19. At 7, 9 and 14 days post irradiation, cell number was determined using an Incucyte® ZOOM life cell analysis system and related software (Essen Bioscience, Hertfordshire, United Kingdom). Afterwards, the senescence associated β-galactosidase activity in the cells was determined using the chlorophenol red β-D-galactopyranoside (CPRG) assay as described previously. The cells were washed with PBS and lysed using M-PER™ buffer (Thermo Fisher Scientific, Asse, Belgium). Subsequently, 1×CPRG substrate (2 mM Chloropenol Red β-D-galactopyranoside in CPRG assay buffer containing 50 mM KPO4, 1 mM MgCl2, pH 6) (Sigma-Aldrich, Overijse, Belgium) was added to each well and the plates incubated for 18 h at 37° C. without CO2. A CLARIOstar® microplate reader (BMG Labtech, Temse, Belgium) was used to measure the absorbance at 570 nm.

Assay [4] concerns TIME cells. Kind of assay: Senescence-associated β-galactosidase CPRG assay, TIME cells. On the procedure:
as §1

Where [5] appears, read: 100 μM TAT-Gap19, 5 Gy, 72 h and 7 d p.i.
[6] abbreviates: 100 μM TAT-Gap19, 0.1 Gy and 5 Gy, 14 d p.i.

For the substance “TAT-Gap19: connexin mimetic peptide, amino-acids 128-136 of the CL of Cx43 (SEQ ID NO: 2), Gap19 linked to TAT sequence; Cx43 hemichannel inhibitor (YGRKKRRQRRRKQIEIKKFK)”, in the assay with TIME cells [1], the “ROS production (IncuCyte)” value is given as “reduced ROS production only significantly for the 0.1 Gy dose”. Also, in the assay with TICAE cells [2] (100 μM TAT-Gap19, 0 Gy control and 0.1 Gy, 72 h p.i.), the MCP-1 readout result is “increased”. Moreover, the “IL-8 (radiation-induced increase)” value in the assay with TICAE cells [2] (setting [5]) is listed as “significantly decreased these responses”. The “MCP-1 (radiation-induced increase)” value in the assay with TICAE cells [2] (setting [5]) was “significantly decreased these responses”. Besides, in the assay with TICAE cells [2] (setting [5]), the “VCAM-1 (radiation-induced increase)” value is “significantly decreased these responses”. In the assay with TICAE cells [2] (100 μM TAT-Gap19, 24 h time point), the “all tested inflammatory markers” value is “increased all tested markers”. Moreover, the “Endothelin-1 (radiation-induced increase)” value in the assay with TICAE cells [2] (100 μM TAT-Gap19, 7 d p.i.) is listed as “significantly reduced these responses”. In addition, the “IL-11 (radiation-induced increase)” value in the assay on TICAE cells [2] (100 μM TAT-Gap19, 7 d p.i.) was “significantly reduced these responses”. Moreover, the Endothelin-1 readout entry in the assay on TICAE cells [2] (100 μM TAT-Gap19, control and 0.1 Gy) is on record as “decreased”. Besides, the “SA β-gal activity” value in the assay on TICAE cells [3] (100 μM TAT-Gap19, 0 Gy and 5 Gy, 9 d p.i.) is on record as “significantly reduced SA β-gal activity”; in the assay with TICAE cells [3] (100 μM TAT-Gap19, control, 0.1 Gy and 5 Gy, 7 d p.i.) it was “significantly reduced SA β-gal activity”; in the assay on TIME cells [4] (100 μM TAT-Gap19, 0 Gy, 0.1 Gy and 5 Gy, 7 d p.i.), “significantly reduced SA β-gal activity in all conditions”; in the assay with TIME cells [4] (100 μM TAT-Gap19, 5 Gy, 9 d p.i.) it was “significantly reduced SA β-gal activity”; with TIME cells [4] (100 μM TAT-Gap19, control condition, 9 d p.i.), “unexpectedly increased SA β-gal activity”. Also, the “SA β-gal activity (radiation responses)” value in the assay on TICAE cells [3] (setting [6]) and with TIME cells [4] (setting [6]) was “significantly inhibited these responses” throughout.
